Measurements as given in US20170226139A1, “CRYSTALLINE SALTS OF (Z)-O-OCTADEC-9-EN-1-YL O,O-DIHYDROGEN PHOSPHOROTHIOATE” (priority 2013, published 2017).

Experiments:
[1] = biological target: T1, LPA2 receptors from the mouse (Mus musculus, UniProt Q9JL06); assay: Calcium-mobilization assay (FURA-2), mouse LPA2; type: cell-based
T1 construct: expressed in transfected cells
Procedure: We investigated structure-activity relationships across species, LPAR subtypes and between Rx100 and two known process impurities encountered in manufacture: Rx103 (‘E’ isomer) and Rx200 (oleyl phosphate and impurity, which can be an Rx100 degradant along with oleyl alcohol). Rx100, Rx103, Rx200 and native LPA were investigated at different human LPAR subtypes. In addition, the activity of these compounds was evaluated at LPA2 receptors from the rhesus, rat and mouse species. Human LPA1/2/3 subtypes were transfected into mouse embryonic fibroblasts (MEF) or rat hepatoma cells (RH7777)—both of which are normally non-responsive or null to LPA. Human LPA4 was transfected into Chinese hamster ovary (CHO) cells and LPA5 into the B103 neuroblastoma cell line. […] The B103 rat neuroblastoma cell line is endogenously nonresponsive to LPA but expresses heterologous LPA5 receptors well. […] LPAR activation elicits a G-protein-mediated transient rise in intracellular calcium level that is proportional to the concentration of LPA applied. The intracellular calcium level was quantified by the calcium-selective fluorescent indicator FURA-2 (e.g., increased intracellular calcium surge=increased fluorescence).

cynomolgus monkeys = assay: Single-dose range-finding and 7-day repeat-dose toxicity in monkeys; type: in vivo
Procedure: In the first phase of the range-finding monkey study, one male and one female cynomolgus monkeys received single subcutaneous doses of Rx100.Lysine at 0.3, 1, 3, 10, 25 and 75 mg/kg of free acid. The vehicle for all doses was Sterile water for injection with 10 mM L-histidine. In the 7-day repeat-dose phase, two males and females were dosed subcutaneously at 10 mg/kg/day. Parameters evaluated included clinical signs, body weight, food consumption, and clinical and anatomic pathology. […] Animals were subsequently sacrificed. […] No effects on body weights were seen.

[2] = Rx100 salt screening (solid formation, XRPD wet/dry, filterability, exposure to RH > 90%)
Procedure: We designed a complex and unconventional screening regime to screen for Rx100 crystalline salts. […] The screening regime is described as follows.
Rx100.FA in the form of a viscous liquid and eighteen counter ions were used as starting materials. These counter ions are listed and numbered in Table 4. The numbers will be used for grouping the resulting solids. The screening was performed in three stages.
Stage one (1) included screening 11 counter ions: sodium hydroxide, ammonium hydroxide, ethylenediamine, diethylamine, tromethamine (Tris), hydroxyethyl morpholine, benzathine, dimethylamino ethanol, L-Arginine, L-Lysine, L-Histidine. […] In stage 1, we performed three rounds of experiment.
In the first round of experiment, four (4) solvent systems, i.e., isopropyl alcohol (IPA), diethyl ether (DEE), IPA:water (a mixture at a volume ratio of 95:5) and tetrahydrofuran (THF), were used. Thus in this first round of screening, 44 individual base-acid reactions were conducted in 44 vials.
First, Rx100.FA and each of the bases were mixed in a vial. […] In each of the 44 vials, 211.1 μL of the prepared liquid, which was equivalent to about 35 mg of Rx100.FA, was first dispensed. Then, one equivalent (molar) of each of the 11 bases was dispensed in its corresponding vial. For example, the base sodium hydroxide was added to vials 1, 12, 23 and 34. Similarly, L-histidine was added to vials 11, 22, 33 and 44. Observations were recorded upon addition of the bases in to Rx100.FA.
Second, the solvent in each mixture was depleted. All vials containing the mixtures of Rx100.FA and each of the bases were left under moderate vacuum and nitrogen bleed at room temperature overnight to evaporate the solvent. The vials were then kept under full vacuum for about an hour to make sure the solvents (ethanol and water) are evaporated. Observations on formation of solid upon evaporation were recorded.
Third, solvents were added in each vial to induce solid formation. In each vial, a stir bar and one of the four selected solvents (each 5 volumes with respect to the Rx100.FA) were added. The vials were then capped. IPA was added to the first set of 11 vials (1-11), DEE added to the second set of 11 vials (12-22), IPA:water added to the third set of 11 vials (23-33), and THF added to the fourth set of 11 vials (34-44). The vials were left at room temperature while stirring for at least 5 hours. Observations were recorded.
The first set of XRPD analyses were recorded as “wet” samples. The solids were dried under vacuum for 1 hour and at room temperature followed by XRPD as “dry” sample. The dry solid was then exposed to relative humidity of more than 90% overnight followed by XRPD analysis. For XRPD naming, a number and a letter were used. The number refers to the counter ion and the letter refers to the chronological discovered XRPD pattern of that particular salt.
In the second round of experiment of stage one, another four (4) solvent systems, i.e., methanol (MeOH), tert-Butyl methyl ether (tBME), ethyl acetate and toluene, were used in the same 44 vials as used in the first round experiment. The solvents in all 44 vials from the first round were evaporated to dryness under vacuum and nitrogen bleed. The 4 new solvents were then added into the vials. Methanol was added to the first set of 11 vials (1-11), tBME added to the second set of 11 vials (12-22), Ethyl acetate added to the third set of 11 vials (23-33), and Toluene added to the fourth set of 11 vials (34-44). The same procedure as in the first round of experiment was followed for these new solvents and samples were taken for XRPD analysis.
In the third round of experiment, effect of base equivalence was assessed. […] After addition of the extra base, the previous solvent was evaporated and new solvents added.

physchem = conditions: thermodynamic from solid
[3] = Evaporative crystallization tests, XRPD; type: physicochemical; conditions: evaporated to dryness under vacuum at ambient conditions
Procedure: Third, Evaporative Crystallization tests were performed. Based on the short term slurry experiments, all samples which experienced full dissolution were utilized for evaporative crystallizations. Samples were evaporated to dryness under vacuum at ambient conditions.

T1 sequence (Q9JL06 whole entry): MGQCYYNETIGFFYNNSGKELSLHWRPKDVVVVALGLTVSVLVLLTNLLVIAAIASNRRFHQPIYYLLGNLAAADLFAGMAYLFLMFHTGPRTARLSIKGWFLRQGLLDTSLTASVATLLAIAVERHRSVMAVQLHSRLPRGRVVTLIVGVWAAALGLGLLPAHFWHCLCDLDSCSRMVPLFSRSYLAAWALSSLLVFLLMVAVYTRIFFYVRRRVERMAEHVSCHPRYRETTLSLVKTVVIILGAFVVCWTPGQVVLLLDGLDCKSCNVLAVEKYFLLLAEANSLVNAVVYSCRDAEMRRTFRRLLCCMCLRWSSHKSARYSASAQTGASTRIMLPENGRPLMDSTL

Row | SMILES | EC50 [1] [nM] | Emax ([1]; read-out: Emax (% of LPA)) [%] | effects on body weights (cynomolgus monkeys; 10 mg/kg/day SC, 7 days) | signs in repeated dose phase (cynomolgus monkeys; 10 mg/kg/day SC, 7 days) | clinical signs (cynomolgus monkeys; single SC dose 75 mg/kg) | treatment related effects (cynomolgus monkeys; single SC doses up to and including 25 mg/kg) | Stability at high humidity [2] | Crystallinity ([2]; Rx100 salt formed with the named base, XRPD, listed as Rx100.L-Lysine salt) | Filterability ([2]; Rx100 salt formed with the named base, listed as Rx100.L-Lysine salt) | solubility (physchem; simulated formulation solvent, aqueous with cosolvent or surfactant or cyclodextrin) [mg/mL] | solubility (physchem; water) [mg/mL] | Form by XRPD after evaporative crystallization [3]
1 | CCCCCCCC/C=C\CCCCCCCCOP(O)(O)=S [Rx100, (Z)—O-octadec-9-en-1-yl O,O-dihydrogen phosphorothioate] | 167 | 100 | – | – | – | – | – | – | – | – | – | –
2 | CCCCCCCC/C=C\CCCCCCCCOP(O)(O)=S [Rx100.L-Lysine, (Z)—O-octadec-9-en-1-yl O,O-dihydrogen phosphorothioate] | – | – | No effects | intermittent food consumption and adverse effects at the injection sites | animals became hunched and were obviously in pain | no meaningful treatment related effects | stable at high humidity | showed crystallinity | filterable | > 43 | > 48 | no change in form
